Where two headings read alike, the source gives them in different places.
Target: T1, IKur in human atrial myocytes (Homo sapiens, UniProt P22460)
T1 construct: Human myocytes were isolated from specimens of right atrial appendage obtained from patients; endogenous in cells; host or cells: human atrial myocytes from right atrial appendage of patients undergoing cardiopulmonary bypass
Assay: Voltage clamp measurement of IKur block (rested state, use-dependent, rate-dependent) in human atrial myocytes
Assay type: cell-based
Settings: for inhibition at 0.03 µM / Rate-Dpdnt Ratio / Use-Dpdnt Ratio / inhibition at 0.1 µM / inhibition at 0.3 µM / inhibition at 1 µM: human atria; for Rate-Dpdnt Ratio: 3 Hz vs 1 Hz, last pulse, <1 = rate-dependent; for Use-Dpdnt Ratio: 10th vs 1st pulse @ 1 Hz, <1 = use-dependent; for selective blockade of IKur (in words): relative to other cardiac K+ channels
From the text: B. Measurement of IKur in Human Atrial Myocytes
Isolation of Human Atrial Myocytes:
Human myocytes were isolated from specimens of right atrial appendage obtained from patients undergoing cardiopulmonary bypass, using a modification of the procedure described by Fermini B, Wang Z, Duan D and Nattel S., "Differences in rate dependence of transient outward current in rabbit and human atrium" Am. J. Physiol. […] All tissues were collected in accordance with Temple University School of Medicine Institutional guidelines. […] Tissue samples were quickly immersed in cold (0-4° C.) cardioplegia solution containing (in mM/L): 50 KH2 PO4, 8 MgSO4, 10 NaHCO3, 5 adenosine, 25 taurine, 140 glucose, and 100 mannitol, pH 7.4 and bubbled with 100% O2. […] The tissue was gently agitated by continuous bubbling with 100% O2 for 5 min. […] The supernatant was removed after 40 min and discarded. The chunks were then incubated in a solution of the same ionic composition but supplemented with only collagenase and […]. Microscopic examination of the medium was performed every 10-20 min to determine the number and quality of isolated cells. When the yield appeared maximal, the tissue chunks were suspended in a modified Kraftbruhe solution containing (in mM/L): 25 KCl, 10 KH2 PO4, 25 taurine, 0.5 EGTA, 22 glucose, 55 glutamic acid, and 0.1% bovine albumin, pH 7.3 (22-24° C.) and gently triturated using a large bore Pasteur pipette. The supernatant was collected in a 50 ml centrifuge tube. […] Cells were used within 2-24 hr after isolation.
A small aliquot of the solution containing the isolated human atrial myocytes was placed in a 1-ml chamber mounted on the stage of an inverted microscope. Five minutes were allowed for cell adhesion to the bottom of the chamber. To record IKur, human atrial myocytes were superfused with a solution of the same ionic composition as that used for Kv1.5. An alternative external solution was sometimes used in which NaCl was replaced with NMDG (formal name: N-methyl-d-glucamine) to inhibit INa.
Currents were elicited by 150 ms depolarizing test pulses to +40 mV from a holding potential of -50 mV to inactivate Ito and INa. The amplitude of IKur was measured as the amplitude of the time-dependentcurrent at the end of the test pulse, relative to the holding current level. […] All experiments were performed at room temperature (22-24° C.).
C. Measurement of Use-Dependent and Rate-Dependent Block.
Pulses were applied in 10 second long trains delivered after 30 second rest intervals at frequencies of 1 Hz (10 pulses) or 3 Hz (30 pulses). Percent block of the current is defined as the % decrease in the current amplitude produced by an agent during a given pulse relative to the control current amplitude for that pulse. Rested-state block is the block of the current during the first pulse in a train following the 30 sec rest period. Use-dependent block is block that occurs to a progessively greater extent with each successive depolarization in a train or sequence of pulses or depolarizations delivered at a given rate or frequency. Thus, during a train of 10 depolarizations at frequency of 1 Hz, use-dependent block is assessed as the ratio of the amount of block for the 10th pulse relative to block for the 1st pulse (rested state block) of the train. Rate-dependent block is block that occurs to a greater extent or preferentially at faster rates of depolarization or heart rates. Thus, rate-dependent block is assessed as the ratio of the amount of block of the current during the last pulse of the 10 sec train at 3 Hz vs. 1 Hz. Consequently, ratios of less than one (<1) are indicative of use-dependentand rate-dependent block and the lower the ratio the greater the degree of use and rate dependence.

[1] = 30 nM, 1st pulse @ 1 Hz, +40 mV from -50 mV, read-out: Average % Block, Rested State, 1st pulse
[2] = 30 nM, 10th pulse @ 1 Hz, read-out: Average % Block, Use-Dpdnt, 10th pulse
[3] = 30 nM, 30th pulse @ 3 Hz, read-out: Average % Block, Rate-Dpdnt, 30th pulse
[4] = 100 nM, 1st pulse @ 1 Hz, read-out: Average % Block, Rested State, 1st pulse
[5] = 100 nM, 10th pulse @ 1 Hz, read-out: Average % Block, Use-Dpdnt, 10th pulse
[6] = 100 nM, 30th pulse @ 3 Hz, read-out: Average % Block, Rate-Dpdnt, 30th pulse

T1 sequence (P22460 whole entry): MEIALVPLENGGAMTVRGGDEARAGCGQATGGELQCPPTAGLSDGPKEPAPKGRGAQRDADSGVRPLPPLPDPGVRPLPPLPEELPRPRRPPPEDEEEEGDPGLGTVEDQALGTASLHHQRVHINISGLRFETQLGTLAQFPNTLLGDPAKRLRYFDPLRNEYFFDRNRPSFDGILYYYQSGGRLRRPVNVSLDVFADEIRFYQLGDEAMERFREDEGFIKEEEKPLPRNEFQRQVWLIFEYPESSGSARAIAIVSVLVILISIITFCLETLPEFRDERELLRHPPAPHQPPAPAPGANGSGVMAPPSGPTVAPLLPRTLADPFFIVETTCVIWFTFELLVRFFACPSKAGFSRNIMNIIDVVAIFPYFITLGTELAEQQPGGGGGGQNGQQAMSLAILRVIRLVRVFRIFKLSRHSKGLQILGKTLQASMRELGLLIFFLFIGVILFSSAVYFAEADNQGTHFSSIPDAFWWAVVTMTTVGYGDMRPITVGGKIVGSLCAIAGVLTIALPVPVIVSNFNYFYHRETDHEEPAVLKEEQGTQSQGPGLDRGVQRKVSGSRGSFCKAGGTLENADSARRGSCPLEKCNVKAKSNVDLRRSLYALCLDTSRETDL

Structure (SMILES) | inhibition at 0.03 µM [1] | inhibition at 0.03 µM [2] | inhibition at 0.03 µM [3] | inhibition at 0.1 µM [4] | Rate-Dpdnt Ratio (100 nM) | inhibition at 0.1 µM [5] | Use-Dpdnt Ratio (100 nM) | inhibition at 0.1 µM [6] | use-dependent block of IKur (in words) (human atrial myocytes) | selective blockade of IKur (in words) (human atrial myocytes) | other results
COc1ccc(-n2nc(Sc3ccc(Cl)cc3)c(C)c(C#N)c2=O)cc1 [C, 6-(4-Chlorophenylthio)-2-(4-methoxyphenyl)-5-methyl-3-oxo-2,3-dihydropyridazine-4-carbonitrile] | 35.7% | 43.2% | 42.9% | 63.8% | 1.13 | 67.9% | 0.94 | 60.1% | use-dependentblockade | selective blockade | Rate-Dpdnt Ratio (30 nM): 1.01; Use-Dpdnt Ratio (30 nM): 0.83; IC50 (first pulse of 10 at 1 Hz, +40 mV from -50 mV, read-out: Rested State IC50, IKur in Human Atrium): 130 nM
CC1CCC(C(C)C)C(P(=O)(c2ccccc2)c2ccccc2)C1 (stereo not drawn) [A, (2-Isopropyl-5-methylcyclohexyl)diphenylphosphine oxide] | 21.9% | 33% | 48.4% | 35.6% | – | 59.7% | – | 75.7% | use-dependentblockade | – | rate-dependent block of IKur (in words) (human atrial myocytes): strong rate-dependent profile; use-dependent block of IKur (in words) (human atrial myocytes, listed as (2-isopropyl-5-methylcyclohexyl)diphenyl-phosphine oxide): strong use-dependent profile
Cc1cc(C)c(CP(=O)(c2ccccc2)c2ccccc2)c(-c2ccc(F)c(C)c2)c1 [B, 2-(Diphenylphosphinylmethyl)-4'-fluoro-3,5,3'-trimethyl-biphenyl] | – | – | – | 10.4% | 1.53 | 17.8% | 0.58 | 11.6% | use-dependentblockade | selective blockade | inhibition at 0.3 µM (300 nM, 1st pulse @ 1 Hz, read-out: Average % Block, Rested State, 1st pulse): 25.8%; Rate-Dpdnt Ratio (300 nM): 0.93; inhibition at 0.3 µM (300 nM, 10th pulse @ 1 Hz, read-out: Average % Block, Use-Dpdnt, 10th pulse): 31.3%; Use-Dpdnt Ratio (300 nM): 0.82; inhibition at 0.3 µM (300 nM, 30th pulse @ 3 Hz, read-out: Average % Block, Rate-Dpdnt, 30th pulse): 33.8%
COc1ccc(-n2nc(Sc3ccc(C)cc3)c(C)c(C#N)c2=O)cc1 [D] | – | – | – | 61% | – | 68% | 0.90 | – | use-dependentblockade | selective blockade | inhibition at 1 µM (1000 nM, 1st pulse @ 1 Hz, read-out: Average % Block, Rested State, 1st pulse): 81.7%; inhibition at 1 µM (1000 nM, 10th pulse @ 1 Hz, read-out: Average % Block, Use-Dpdnt, 10th pulse): 80%; Use-Dpdnt Ratio (1000 nM): 1.02
